Values belong to the molecule of their own block, whether it stands above or below them.
Key:
[1] = Maximum flux through silicone membrane from water (diffusion cell, saturated donor suspension, 32 °C)
Procedure: The measurement of maximum flux through silicone was performed according to a literature procedure at 32 °C, except that the silicone membrane was in contact with the receptor for only 24 h to condition them. The receptor was a 7.1 pH phosphate buffer.
After the membranes were conditioned, the receptor phases were changed and the donor suspensions (first application, 1 mL) were applied; n = 3. The donor cells were sealed by Parafilm. Samples were taken from the receptor every 2–3 h after application. Following sample collection, the receptor phases were changed to ensure sink conditions, and the donor suspensions were either changed or had more solid/oil added to the existing suspension, depending upon the visible extent of depletion. After 4–5 sampling intervals, the donor suspensions were removed with methanol and the receptors were changed. The membranes were leached with methanol in the donor phase for 48–72 h with samples taken and receptor phases changed every 12–24 h to remove any residual phenol in the membrane.
(§1) The flux values of the first and second application were determined by UV absorption.

[2] = set-up: method as in PMID 22602, PMID 16982163; conditions: cited from earlier work; for Exp. log JMHAQ: experimental maximum flux through human stratum corneum from water, Table 2; for Log JMHAQ: maximum flux through human stratum corneum from water, log value, Table 1
[3] = set-up: method as in PMID 22602, PMID 16982163; conditions: solubility in water, log value; cited from earlier work
[4] = set-up: method as in PMID 22602, PMID 16982163; conditions: octanol:water partition coefficient; cited from earlier work
[5] = set-up: method as in PMID 22602, PMID 16982163; conditions: solubility in octanol, log value; cited from earlier work
[6] = Flux of standard solute theophylline through silicone from propylene glycol (membrane integrity check, second application); assay type: in vitro ADME; conditions: each membrane after methanol leaching
Procedure: as §1

[7] = set-up: method as in PMID 18588972; conditions: donor suspension in propylene glycol; cited from earlier work
[8] = experimental maximum flux through silicone from water, Table 2
[9] = maximum flux through silicone from water, log value, 32 °C, receptor pH 7.1 phosphate buffer, n = 3, Table 1

SMILES: Cc1cc(O)ccc1Cl [compound 1, 4-chloro-3-methyl]
Exp. log JMPAQ ([1]; not told): 1.01 μmole cm^−2 h^−1 | Log JMPAQ ([1]; not told, pH 7.1): 1.01 μmole cm^−2 h^−1 | Exp. log JMHAQ [2]: 0.29 μmole cm^−2 h^−1 | Log JMHAQ [2]: 0.29 μmole cm^−2 h^−1 | Log SAQ [3]: 1.55 μmole cm^−3 | Log KOCT:AQ [4]: 3.10 | Log SOCT [5]: 4.65 μmole cm^−3

Exp. log JMPAQ [1, 8]: −0.027 μmole cm^−2 h^−1 | Log JMPAQ [1, 9]: −0.027 μmole cm^−2 h^−1
SMILES: Cc1cc(O)cc(C)c1Cl [compound 2, 4-chloro-3,5-dimethylphenol]
Exp. log JMHAQ [2]: −0.95 μmole cm^−2 h^−1 | Log JMHAQ [2]: −0.95 μmole cm^−2 h^−1 | Log SAQ [3]: 0.28 μmole cm^−3 | Log KOCT:AQ [4]: 3.39 | Log SOCT [5]: 3.67 μmole cm^−3

SMILES: Cc1ccc(O)cc1 [compound 4, 4-methyl]
Exp. log JMPAQ [1, 8]: 1.62 μmole cm^−2 h^−1 | Log JMPAQ [1, 9]: 1.62 μmole cm^−2 h^−1 | Exp. log JMHAQ [2]: 0.53 μmole cm^−2 h^−1 | Log JMHAQ [2]: 0.53 μmole cm^−2 h^−1 | Log SAQ [3]: 2.29 μmole cm^−3 | Log KOCT:AQ [4]: 1.95 | Log SOCT [5]: 4.24 μmole cm^−3

SMILES: Oc1ccc(Cl)cc1Cl [compound 5, 2,4-dichloro]
Exp. log JMPAQ ([1]; not told): 1.16 μmole cm^−2 h^−1 | Log JMPAQ ([1]; not told, pH 7.1): 1.16 μmole cm^−2 h^−1 | Exp. log JMHAQ [2]: 0.27 μmole cm^−2 h^−1 | Log JMHAQ [2]: 0.27 μmole cm^−2 h^−1 | Log SAQ [3]: 1.49 μmole cm^−3 | Log KOCT:AQ [4]: 3.08 | Log SOCT [5]: 4.57 μmole cm^−3

SMILES: Cc1cccc(O)c1 [compound 7, 3-methylphenol]
Exp. log JMPAQ [1, 8]: 1.61 μmole cm^−2 h^−1 | Log JMPAQ [1, 9]: 1.61 μmole cm^−2 h^−1 | Exp. log JMHAQ [2]: 0.54 μmole cm^−2 h^−1 | Log JMHAQ [2]: 0.54 μmole cm^−2 h^−1 | Log SAQ [3]: 2.36 μmole cm^−3 | Log KOCT:AQ [4]: 1.96 | Log SOCT [5]: 4.32 μmole cm^−3

SMILES: Cn1c(=O)c2[nH]cnc2n(C)c1=O [theophylline]
log JMPPG (log flux of theophylline through silicone from PG) [6]: within the standard deviation of the literature value | log JMPPG (log flux of theophylline through silicone from PG), literature value [7]: −2.68 ± 0.12 log units

— publication PMC3836618, “The Flux of Phenolic Compounds through Silicone Membranes” (Pharmaceutics, 2013)
